Test: xn = mol fraction of the nth substance listed
Conditions: 100 kPa, Liquid; for mass density: Vibrating tube method; for viscosity: Falling or rolling sphere viscometry

CC[N+]1(C)CCOCC1.O=C([O-])CO [N-ethyl-N-methylmorpholinium glycolate] + O
Conditions	mass density [kg/m3]	viscosity [mPa·s]
323.15 K, x1 = 0.288	1182.6	–
323.15 K, x1 = 0.3907	1194.3	–
323.15 K, x1 = 0.4809	1200.6	–
323.15 K, x1 = 0.5793	1205.2	–
323.15 K, x1 = 0.6669	1207.9	–
323.15 K, x1 = 0.7573	1210.3	–
323.15 K, x1 = 0.8256	1211.7	–
328.15 K, x1 = 0.0933	1110	–
328.15 K, x1 = 0.1688	1150.2	6.97
328.15 K, x1 = 0.2209	1166	11.7
328.15 K, x1 = 0.288	1179.2	20.8
328.15 K, x1 = 0.3907	1191	54
328.15 K, x1 = 0.4809	1197.3	98.6
328.15 K, x1 = 0.5793	1201.9	179
328.15 K, x1 = 0.6669	1204.7	283
328.15 K, x1 = 0.7573	1207	435
328.15 K, x1 = 0.8256	1208.5	587
333.15 K, x1 = 0.0933	1106.8	–
333.15 K, x1 = 0.1688	1146.8	6
333.15 K, x1 = 0.2209	1162.6	9.79
333.15 K, x1 = 0.288	1175.8	17.3
333.15 K, x1 = 0.3907	1187.6	43.4
333.15 K, x1 = 0.4809	1194	77.6
333.15 K, x1 = 0.5793	1198.6	138
333.15 K, x1 = 0.6669	1201.5	217
333.15 K, x1 = 0.7573	1203.8	329
333.15 K, x1 = 0.8256	1205.2	441
338.15 K, x1 = 0.0933	1103.5	–
338.15 K, x1 = 0.1688	1143.4	5.2
338.15 K, x1 = 0.2209	1159.2	8.55
338.15 K, x1 = 0.288	1172.4	14.6
338.15 K, x1 = 0.3907	1184.3	32.4
338.15 K, x1 = 0.4809	1190.7	59
338.15 K, x1 = 0.5793	1195.4	105
338.15 K, x1 = 0.6669	1198.3	165
338.15 K, x1 = 0.7573	1200.8	253
338.15 K, x1 = 0.8256	1202.1	340
343.15 K, x1 = 0.0933	1100.2	–
343.15 K, x1 = 0.1688	1140	4.55
343.15 K, x1 = 0.2209	1155.8	7.41
343.15 K, x1 = 0.288	1169	12.4
343.15 K, x1 = 0.3907	1181	28.9
343.15 K, x1 = 0.4809	1187.5	49.6
343.15 K, x1 = 0.5793	1192.2	85.3
343.15 K, x1 = 0.6669	1195.1	131
343.15 K, x1 = 0.7573	1197.6	195
343.15 K, x1 = 0.8256	1199	258
348.15 K, x1 = 0.0933	1096.8	–
348.15 K, x1 = 0.1688	1136.6	4.01
348.15 K, x1 = 0.2209	1152.4	6.46
348.15 K, x1 = 0.288	1165.7	10.7
348.15 K, x1 = 0.3907	1177.7	24.2
348.15 K, x1 = 0.4809	1184.2	40.4
348.15 K, x1 = 0.5793	1189	67.9
348.15 K, x1 = 0.6669	1192	102
348.15 K, x1 = 0.7573	1194.5	150
348.15 K, x1 = 0.8256	1195.9	196

Reference: the NIST ThermoML archive (doi:10.1016/j.jct.2016.10.034)
